≈ marks a conversion by molar mass, not a printed value.
What was measured:
[1] = system: Staph aureus 152 (pen sens); experiment: MIC, veterinary bacteria; format: cell-based; details: Staphylococcus aureus, veterinary bacteria (Table 2), read-out: MIC
M fermentans MWKL4 = experiment: MIC, anti-mycoplasmal, Friis' broth microtiter method; format: cell-based; details: read-out: in vitro MIC, BROTH
Strep uberis SPU1 = experiment: MIC, veterinary bacteria; format: cell-based; details: veterinary bacteria (Table 2), read-out: MIC
Past multocida PA1 = experiment: MIC, veterinary bacteria; format: cell-based; details: veterinary bacteria (Table 2), read-out: MIC
E coli E1 = experiment: MIC, veterinary bacteria; format: cell-based; details: veterinary bacteria (Table 2), read-out: MIC
[2] = system: M suipneumoniae J2206/183b; experiment: MIC, anti-mycoplasmal, Friis' broth microtiter method; format: cell-based; details: read-out: in vitro MIC, BROTH
E coli NCTC 10418 = experiment: MIC, veterinary bacteria; format: cell-based; details: veterinary bacteria (Table 2), read-out: MIC
Past Haemolytica PA5 = experiment: MIC, veterinary bacteria; format: cell-based; details: veterinary bacteria (Table 2), read-out: MIC
M pneumoniae 427a = experiment: MIC, anti-mycoplasmal, Friis' broth microtiter method; format: cell-based; details: read-out: in vitro MIC, BROTH
M dispar NCTC 10125 = experiment: as above; format: cell-based; details: read-out: in vitro MIC, BROTH
Strep dysgalaciae SPD1 = experiment: MIC, veterinary bacteria; format: cell-based; details: veterinary bacteria (Table 2), read-out: MIC
[3] = system: Staph aureus B4 (pen resis); experiment: MIC, veterinary bacteria; format: cell-based; details: Staphylococcus aureus, veterinary bacteria (Table 2), read-out: MIC
M dispar H225 = experiment: MIC, anti-mycoplasmal, Friis' broth microtiter method; format: cell-based; details: read-out: in vitro MIC, BROTH
[4] = system: Corynebacterium pyogenes CY1; experiment: MIC, veterinary bacteria; format: cell-based; details: veterinary bacteria (Table 2), read-out: MIC
[5] = Serum binding by ultrafiltration; format: in vitro ADME, pig; details: pig, serum, compounds at 8 mcg/ml, microbiological assay (B. subtilis ATCC 6633), read-out: % bound to pig serum (converted)
Experimental: Serum binding was assessed by ultrafiltration of procine serum containing compounds at 8 mcg/ml, and through an Amicon CF50A ultrafiltration cone. Separation of ultrafiltrate was achieved by centrifugation.

S typhimurium S18 = experiment: MIC, veterinary bacteria; format: cell-based; details: veterinary bacteria (Table 2), read-out: MIC
M pulmonis JB = experiment: MIC, anti-mycoplasmal, Friis' broth microtiter method; format: cell-based; details: read-out: in vitro MIC, BROTH
Bord bronchiseptica BO8 = experiment: MIC, veterinary bacteria; format: cell-based; details: veterinary bacteria (Table 2), read-out: MIC
Strep agalactiae SPA1 = experiment: MIC, veterinary bacteria; format: cell-based; details: veterinary bacteria (Table 2), read-out: MIC
[6] = Mean serum concentration in neonatal piglets after intramuscular or oral administration; format: in vivo; details: pig, 50 mg/kg; for concentration at 1 h: 60'
Experimental: e) Mean serum concentration in neonatal piglets of Examples 4 and 5 after intramuscular or oral administration at 50 mg/kg
Blood levels were assessed in neonatal piglets (2 to 4 animals per group and man bodyweights about 2 kg). The dose was 50 mg/kg (dose solution = 25 mg/ml in 25% ethanol). Doses were given by intramuscular injection and orally by stomach tube. Piglets were bled at intervals up to 8 and at 24 hours, and serum assayed microbiologically (B. subtilis ATCC 6633).

Past multocida PA2 = experiment: MIC, veterinary bacteria; format: cell-based; details: veterinary bacteria (Table 2), read-out: MIC
[7] = system: Strep suis (group D) SPS11; experiment: MIC, veterinary bacteria; format: cell-based; details: veterinary bacteria (Table 2), read-out: MIC
Staph aureus Oxford = experiment: MIC, veterinary bacteria; format: cell-based; details: Staphylococcus aureus, veterinary bacteria (Table 2), read-out: MIC
S dublin S7 = experiment: MIC, veterinary bacteria; format: cell-based; details: veterinary bacteria (Table 2), read-out: MIC
M suipneumoniae Str 11 = experiment: MIC, anti-mycoplasmal, Friis' broth microtiter method; format: cell-based; details: read-out: in vitro MIC, BROTH
M pneumoniae ATCC 15492 = experiment: as above; format: cell-based; details: read-out: in vitro MIC, BROTH
[8] = system: Erysipelothrix rhusiopathiae NCTC 8163; experiment: MIC, veterinary bacteria; format: cell-based; details: NCTC8163, veterinary bacteria (Table 2), read-out: MIC
Bord bronchisptica BO9 = experiment: MIC, veterinary bacteria; format: cell-based; details: veterinary bacteria (Table 2), read-out: MIC

For `CC(=CC(=O)OCCCC(=O)c1cccs1)CC1OCC(CC2OC2C(C)C(C)O)C(O)C1O` (centres unmarked) [Example 4, 4(1-Thienyl-2-ylbutan-1-onyl) monate A], which MIC [1] is on record?
Its MIC is 0.156 mg/L (≈ 0.314 µM).

What about the MIC (M fermentans MWKL4) of the same molecule?
The MIC was < 0.02 mg/L.

And the MIC (Strep uberis SPU1)?
The MIC was < 0.019 mg/L.

What about the MIC (Past multocida PA1) of the same molecule?
The MIC was 0.312 mg/L (≈ 0.628 µM).

And the MIC (E coli E1)?
The MIC was > 80 mg/L.

What about the MIC [2] of the same molecule?
The MIC was 0.078 mg/L (≈ 0.157 µM).

And the MIC (E coli NCTC 10418)?
Its MIC is > 80 mg/L.

What about the MIC (Past Haemolytica PA5) of the same molecule?
Its MIC is 5 mg/L (≈ 10.1 µM).

And the MIC (M pneumoniae 427a)?
The MIC was 0.312 mg/L (≈ 0.628 µM).

And the MIC (M dispar NCTC 10125)?
Its MIC is 0.039 mg/L (≈ 0.0785 µM).

What about the MIC (Strep dysgalaciae SPD1) of the same molecule?
The MIC was 0.156 mg/L (≈ 0.314 µM).

And the MIC [3]?
Its MIC is 0.156 mg/L (≈ 0.314 µM).

And the MIC (M dispar H225)?
Its MIC is < 0.02 mg/L.

And the MIC [4]?
The MIC was > 80 mg/L.

What about the fraction unbound [5] of the same molecule?
The fraction unbound was 0.012.

What about the MIC (S typhimurium S18) of the same molecule?
Its MIC is > 80 mg/L.

What about the MIC (M pulmonis JB) of the same molecule?
The MIC was < 0.02 mg/L.

What about the MIC (Bord bronchiseptica BO8) of the same molecule?
Its MIC is 40 mg/L (≈ 80.5 µM).

And the MIC (Strep agalactiae SPA1)?
The MIC was 0.312 mg/L (≈ 0.628 µM).

And the concentration at 10 min ([6]; im)?
Its concentration at 10 min is 9 µg/mL.

What about the concentration at 20 min ([6]; im) of the same molecule?
The concentration at 20 min was 8.9 µg/mL.

And the concentration at 40 min ([6]; im)?
The concentration at 40 min was 10 µg/mL.

What about the concentration at 1 h ([6]; im) of the same molecule?
The concentration at 1 h was 8.5 µg/mL.

What about the concentration at 2 h ([6]; im) of the same molecule?
The concentration at 2 h was 3.3 µg/mL.

What about the concentration at 3 h ([6]; im) of the same molecule?
The concentration at 3 h was 1.9 µg/mL.

And the concentration at 4 h ([6]; im)?
Its concentration at 4 h is 1.6 µg/mL.

And the concentration at 6 h ([6]; im)?
Its concentration at 6 h is 0.83 µg/mL.

And the concentration at 8 h ([6]; im)?
The concentration at 8 h was 0.71 µg/mL.

And the concentration at 24 h ([6]; im)?
The concentration at 24 h was < 0.12 µg/mL.

And the concentration at 10 min ([6]; po)?
The concentration at 10 min was 5.3 µg/mL.

What about the concentration at 20 min ([6]; po) of the same molecule?
Its concentration at 20 min is 5.5 µg/mL.

What about the concentration at 40 min ([6]; po) of the same molecule?
The concentration at 40 min was 6.5 µg/mL.

And the concentration at 1 h ([6]; po)?
Its concentration at 1 h is 5.7 µg/mL.

And the concentration at 2 h ([6]; po)?
Its concentration at 2 h is 2.4 µg/mL.

What about the concentration at 3 h ([6]; po) of the same molecule?
Its concentration at 3 h is 1.4 µg/mL.

What about the concentration at 4 h ([6]; po) of the same molecule?
Its concentration at 4 h is 1.4 µg/mL.

And the concentration at 6 h ([6]; po)?
Its concentration at 6 h is 0.77 µg/mL.

And the concentration at 8 h ([6]; po)?
Its concentration at 8 h is 0.74 µg/mL.

And the concentration at 24 h ([6]; po)?
Its concentration at 24 h is 0.15 µg/mL.

What about the MIC (Past multocida PA2) of the same molecule?
Its MIC is 0.07 mg/L (≈ 0.141 µM).

What about the MIC [7] of the same molecule?
Its MIC is 2.5 mg/L (≈ 5.03 µM).

And the MIC (Staph aureus Oxford)?
The MIC was 0.156 mg/L (≈ 0.314 µM).

And the MIC (S dublin S7)?
The MIC was > 80 mg/L.

And the MIC (M suipneumoniae Str 11)?
The MIC was 0.078 mg/L (≈ 0.157 µM).

And the MIC (M pneumoniae ATCC 15492)?
Its MIC is 0.312 mg/L (≈ 0.628 µM).

And the MIC [8]?
The MIC was 20 mg/L (≈ 40.3 µM).

And the MIC (Bord bronchisptica BO9)?
The MIC was 5 mg/L (≈ 10.1 µM).

— EP0025288A1, “Derivatives of monic acid, processes for their preparation, compositions containing them and their preparation” (priority 1979, dated 1981)
